Data reported in the kinase profiling compilation of Christmann-Franck et al. (2016).

Tests used:
Test in all cases: radiometric filter-binding kinase assay
NEK6 (human) = NEK6 (human) (UniProt Q9HC98)
RPS6KA3 KD1 KD2 (human) = RPS6KA3 KD1 KD2 (human) (UniProt P51812)
MARK3 (human) = MARK3 (human) (UniProt P27448)
MKNK1 (human) = MKNK1 (human) (UniProt Q9BUB5)
IRAK4 (human) = IRAK4 (human) (UniProt Q9NWZ3)
EPHA2 (human) = EPHA2 (human) (UniProt P29317)
TBK1 (human) = TBK1 (human) (UniProt Q9UHD2)
YES1 (human) = YES1 (human) (UniProt P07947)
PKN2 (human) = PKN2 (human) (UniProt Q16513)
[1] = system: RPS6KB1 (human), P23443 [T412E]
HIPK1 (human) = HIPK1 (human) (UniProt Q86Z02)
HIPK2 (human) = HIPK2 (human) (UniProt Q9H2X6)
IKBKE (human) = IKBKE (human) (UniProt Q14164)
SYK (human) = SYK (human) (UniProt P43405)
FLT1 (human) = FLT1 (human) (UniProt P17948)
CAMKK2 (human) = CAMKK2 (human) (UniProt Q96RR4)
PIM2 (human) = PIM2 (human) (UniProt Q9P1W9)
Sequence of PIM2 (human) (Q9P1W9 whole entry, looked up): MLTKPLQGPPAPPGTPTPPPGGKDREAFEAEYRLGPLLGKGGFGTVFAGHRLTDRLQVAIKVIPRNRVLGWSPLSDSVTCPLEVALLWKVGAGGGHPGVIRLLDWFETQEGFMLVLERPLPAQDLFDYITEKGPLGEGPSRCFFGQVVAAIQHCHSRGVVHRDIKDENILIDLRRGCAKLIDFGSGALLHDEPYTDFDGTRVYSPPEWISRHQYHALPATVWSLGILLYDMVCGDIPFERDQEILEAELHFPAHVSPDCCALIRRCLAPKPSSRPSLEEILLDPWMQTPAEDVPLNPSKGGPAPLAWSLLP

RPS6KA5 KD1 KD2 (human) = RPS6KA5 KD1 KD2 (human) (UniProt O75582)
MELK (human) = MELK (human) (UniProt Q14680)
MAPK12 (human) = MAPK12 (human) (UniProt P53778)
SRC (human) = SRC (human) (UniProt P12931)
Sequence of SRC (human) (P12931 whole entry, looked up): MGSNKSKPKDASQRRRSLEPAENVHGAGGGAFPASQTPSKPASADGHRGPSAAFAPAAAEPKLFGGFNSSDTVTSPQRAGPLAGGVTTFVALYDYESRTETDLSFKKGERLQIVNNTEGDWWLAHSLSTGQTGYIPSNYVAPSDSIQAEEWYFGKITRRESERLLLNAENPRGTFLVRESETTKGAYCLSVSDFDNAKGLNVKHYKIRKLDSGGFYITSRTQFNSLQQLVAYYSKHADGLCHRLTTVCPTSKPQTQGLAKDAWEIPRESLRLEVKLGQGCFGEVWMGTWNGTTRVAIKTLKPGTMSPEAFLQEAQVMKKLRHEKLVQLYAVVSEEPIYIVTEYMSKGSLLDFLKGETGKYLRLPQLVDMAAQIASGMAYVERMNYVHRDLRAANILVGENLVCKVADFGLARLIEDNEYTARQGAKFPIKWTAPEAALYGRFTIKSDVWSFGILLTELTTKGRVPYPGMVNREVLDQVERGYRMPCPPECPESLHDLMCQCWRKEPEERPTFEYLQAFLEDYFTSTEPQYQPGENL

LCK (mouse) = conditions: accession and sequence are those of the human protein
MAPK1 (human) = MAPK1 (human) (UniProt P28482)
NTRK1 (human) = NTRK1 (human) (UniProt P04629)
MARK2 (human) = MARK2 (human) (UniProt Q7KZI7)
Sequence of MARK2 (human) (Q7KZI7 whole entry, looked up): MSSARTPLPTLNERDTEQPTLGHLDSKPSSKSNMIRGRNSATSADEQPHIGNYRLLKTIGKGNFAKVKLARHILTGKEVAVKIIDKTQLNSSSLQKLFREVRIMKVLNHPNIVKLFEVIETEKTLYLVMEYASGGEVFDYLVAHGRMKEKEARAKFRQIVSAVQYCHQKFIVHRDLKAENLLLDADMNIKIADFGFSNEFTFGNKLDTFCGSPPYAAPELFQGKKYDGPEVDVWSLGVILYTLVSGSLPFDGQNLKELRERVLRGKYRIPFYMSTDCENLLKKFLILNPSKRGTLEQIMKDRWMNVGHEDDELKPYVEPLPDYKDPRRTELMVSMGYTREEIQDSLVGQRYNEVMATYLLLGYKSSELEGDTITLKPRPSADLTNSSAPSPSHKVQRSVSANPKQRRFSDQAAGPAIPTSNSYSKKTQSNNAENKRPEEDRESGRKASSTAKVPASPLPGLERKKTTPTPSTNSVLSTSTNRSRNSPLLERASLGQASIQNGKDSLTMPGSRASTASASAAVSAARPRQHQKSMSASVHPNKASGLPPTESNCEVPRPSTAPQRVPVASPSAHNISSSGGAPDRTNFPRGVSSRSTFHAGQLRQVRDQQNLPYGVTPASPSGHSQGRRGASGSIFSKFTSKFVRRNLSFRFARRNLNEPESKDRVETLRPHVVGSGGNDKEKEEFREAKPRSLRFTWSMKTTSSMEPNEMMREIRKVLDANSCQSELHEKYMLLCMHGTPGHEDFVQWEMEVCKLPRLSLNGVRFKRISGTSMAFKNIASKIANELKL

MYLK (human) = MYLK (human) (UniProt Q15746)
Sequence of MYLK (human) (Q15746 whole entry, looked up): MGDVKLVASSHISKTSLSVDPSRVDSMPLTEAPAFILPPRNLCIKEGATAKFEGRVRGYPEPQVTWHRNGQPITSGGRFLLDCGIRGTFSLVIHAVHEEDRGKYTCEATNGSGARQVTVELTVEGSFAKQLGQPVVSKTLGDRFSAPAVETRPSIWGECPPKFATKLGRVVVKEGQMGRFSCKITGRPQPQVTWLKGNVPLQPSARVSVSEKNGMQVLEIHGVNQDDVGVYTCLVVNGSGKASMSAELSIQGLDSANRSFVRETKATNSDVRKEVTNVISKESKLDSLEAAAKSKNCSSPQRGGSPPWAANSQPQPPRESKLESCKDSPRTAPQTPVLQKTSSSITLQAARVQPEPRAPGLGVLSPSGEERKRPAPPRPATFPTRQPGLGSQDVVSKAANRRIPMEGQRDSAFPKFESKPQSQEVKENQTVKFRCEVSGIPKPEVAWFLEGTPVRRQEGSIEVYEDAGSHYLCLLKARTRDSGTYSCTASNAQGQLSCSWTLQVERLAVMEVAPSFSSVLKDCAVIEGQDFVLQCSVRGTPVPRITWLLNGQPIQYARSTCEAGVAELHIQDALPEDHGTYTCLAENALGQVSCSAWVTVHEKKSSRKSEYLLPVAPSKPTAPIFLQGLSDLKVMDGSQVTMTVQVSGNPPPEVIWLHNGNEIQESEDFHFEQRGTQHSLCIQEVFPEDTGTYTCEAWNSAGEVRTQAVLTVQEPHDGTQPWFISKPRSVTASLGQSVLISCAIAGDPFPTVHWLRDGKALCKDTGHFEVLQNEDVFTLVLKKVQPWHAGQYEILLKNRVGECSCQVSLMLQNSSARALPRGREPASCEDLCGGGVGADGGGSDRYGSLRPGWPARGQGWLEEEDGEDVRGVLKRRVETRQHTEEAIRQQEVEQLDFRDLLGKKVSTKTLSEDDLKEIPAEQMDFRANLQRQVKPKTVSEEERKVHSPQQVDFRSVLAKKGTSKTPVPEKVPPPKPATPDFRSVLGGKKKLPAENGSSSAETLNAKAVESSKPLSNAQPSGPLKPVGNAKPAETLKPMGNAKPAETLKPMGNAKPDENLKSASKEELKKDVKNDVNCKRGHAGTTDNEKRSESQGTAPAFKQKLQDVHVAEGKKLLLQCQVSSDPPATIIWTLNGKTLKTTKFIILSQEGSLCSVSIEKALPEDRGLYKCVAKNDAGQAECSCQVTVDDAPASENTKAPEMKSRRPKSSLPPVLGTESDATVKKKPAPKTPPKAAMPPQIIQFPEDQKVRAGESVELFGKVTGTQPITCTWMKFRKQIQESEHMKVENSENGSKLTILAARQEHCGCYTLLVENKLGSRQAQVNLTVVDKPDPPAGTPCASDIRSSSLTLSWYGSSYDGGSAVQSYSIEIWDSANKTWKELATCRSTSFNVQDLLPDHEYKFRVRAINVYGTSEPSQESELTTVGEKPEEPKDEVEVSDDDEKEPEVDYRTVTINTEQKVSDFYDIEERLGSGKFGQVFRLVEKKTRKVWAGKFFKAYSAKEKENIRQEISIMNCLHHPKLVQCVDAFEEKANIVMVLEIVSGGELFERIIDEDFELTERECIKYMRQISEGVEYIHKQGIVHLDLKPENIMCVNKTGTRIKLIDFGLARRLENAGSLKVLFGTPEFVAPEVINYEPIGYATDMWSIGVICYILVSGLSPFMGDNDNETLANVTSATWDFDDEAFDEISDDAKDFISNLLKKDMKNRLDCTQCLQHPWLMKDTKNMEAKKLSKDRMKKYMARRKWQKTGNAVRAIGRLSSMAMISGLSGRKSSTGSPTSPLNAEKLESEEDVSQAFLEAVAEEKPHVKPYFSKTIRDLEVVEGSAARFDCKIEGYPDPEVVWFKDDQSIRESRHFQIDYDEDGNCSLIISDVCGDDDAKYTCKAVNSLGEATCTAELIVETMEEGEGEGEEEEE

NEK2 (human) = NEK2 (human) (UniProt P51955)
Sequence of NEK2 (human) (P51955 whole entry, looked up): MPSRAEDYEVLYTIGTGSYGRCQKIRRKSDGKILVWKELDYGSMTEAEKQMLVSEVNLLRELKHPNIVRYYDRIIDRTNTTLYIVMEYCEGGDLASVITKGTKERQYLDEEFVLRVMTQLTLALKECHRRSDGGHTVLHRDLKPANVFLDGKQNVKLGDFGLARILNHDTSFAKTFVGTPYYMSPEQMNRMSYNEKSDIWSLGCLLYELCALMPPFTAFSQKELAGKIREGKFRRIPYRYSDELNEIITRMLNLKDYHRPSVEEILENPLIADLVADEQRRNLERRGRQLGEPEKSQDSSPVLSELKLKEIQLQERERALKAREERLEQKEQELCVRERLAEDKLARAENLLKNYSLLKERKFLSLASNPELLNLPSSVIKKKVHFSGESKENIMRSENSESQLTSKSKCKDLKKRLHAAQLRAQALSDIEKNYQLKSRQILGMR

MAPK11 (human) = MAPK11 (human) (UniProt Q15759)
INSRR (human) = INSRR (human) (UniProt P14616)

Sequence of EPHA2 (human) (P29317 whole entry, looked up): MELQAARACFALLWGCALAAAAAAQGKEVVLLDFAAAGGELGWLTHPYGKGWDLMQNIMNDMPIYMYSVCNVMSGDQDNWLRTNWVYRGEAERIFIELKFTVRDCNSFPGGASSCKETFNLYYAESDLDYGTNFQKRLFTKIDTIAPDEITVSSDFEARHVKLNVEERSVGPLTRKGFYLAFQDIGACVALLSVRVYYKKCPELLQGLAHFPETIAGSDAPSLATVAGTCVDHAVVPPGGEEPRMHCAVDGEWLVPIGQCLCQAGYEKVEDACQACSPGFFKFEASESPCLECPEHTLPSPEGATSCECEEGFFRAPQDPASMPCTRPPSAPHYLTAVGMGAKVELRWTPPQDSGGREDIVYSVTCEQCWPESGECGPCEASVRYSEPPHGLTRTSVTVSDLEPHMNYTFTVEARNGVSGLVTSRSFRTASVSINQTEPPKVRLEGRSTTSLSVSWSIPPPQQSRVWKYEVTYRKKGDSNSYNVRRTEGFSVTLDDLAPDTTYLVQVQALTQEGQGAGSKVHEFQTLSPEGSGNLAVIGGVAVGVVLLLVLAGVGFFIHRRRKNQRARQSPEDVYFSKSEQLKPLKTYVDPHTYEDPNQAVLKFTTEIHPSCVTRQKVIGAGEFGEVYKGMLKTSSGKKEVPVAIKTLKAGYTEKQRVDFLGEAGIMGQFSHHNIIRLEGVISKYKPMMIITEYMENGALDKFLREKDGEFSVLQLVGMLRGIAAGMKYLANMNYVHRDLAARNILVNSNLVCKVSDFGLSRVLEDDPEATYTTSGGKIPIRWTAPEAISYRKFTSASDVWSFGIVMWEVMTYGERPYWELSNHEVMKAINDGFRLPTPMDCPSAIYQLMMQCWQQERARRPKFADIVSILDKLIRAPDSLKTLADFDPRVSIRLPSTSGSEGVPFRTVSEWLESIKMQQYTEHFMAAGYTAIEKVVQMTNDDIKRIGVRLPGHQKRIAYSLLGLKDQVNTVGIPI

`COc1cc(C(=O)N2CCC(N3CCN(C)CC3)CC2)ccc1Nc1ncc2c(n1)N(C)c1ccccc1C(=O)N2C` was tested, and the residual activity (NEK6 (human); compound 1.0 µM) was 90%, the residual activity (NEK6 (human); compound 10.0 µM) was 110% and the residual activity (RPS6KA3 KD1 KD2 (human); compound 1.0 µM) was 84%. It also gave a residual activity (RPS6KA3 KD1 KD2 (human); compound 10.0 µM) of 59%, a residual activity (MARK3 (human); compound 1.0 µM) of 100% and a residual activity (MARK3 (human); compound 10.0 µM) of 105%. It also gave a residual activity (MKNK1 (human); compound 1.0 µM) of 86%, a residual activity (MKNK1 (human); compound 10.0 µM) of 53% and a residual activity (IRAK4 (human); compound 1.0 µM) of 93%. The residual activity (IRAK4 (human); compound 10.0 µM) was 94%, the residual activity (EPHA2 (human); compound 1.0 µM) was 98% and the residual activity (EPHA2 (human); compound 10.0 µM) was 91%. The residual activity (TBK1 (human); compound 1.0 µM) was 94%, the residual activity (TBK1 (human); compound 10.0 µM) was 104% and the residual activity (YES1 (human); compound 1.0 µM) was 86%. For the same compound, the residual activity (YES1 (human); compound 10.0 µM) was 82%, the residual activity (PKN2 (human); compound 1.0 µM) was 74% and the residual activity (PKN2 (human); compound 10.0 µM) was 80%. It also gave a residual activity ([1]; compound 1.0 µM) of 86%, a residual activity ([1]; compound 10.0 µM) of 81% and a residual activity (HIPK1 (human); compound 1.0 µM) of 94%. It also gave a residual activity (HIPK1 (human); compound 10.0 µM) of 104%, a residual activity (HIPK2 (human); compound 1.0 µM) of 76% and a residual activity (HIPK2 (human); compound 10.0 µM) of 86%. The residual activity (IKBKE (human); compound 1.0 µM) was 76%, the residual activity (IKBKE (human); compound 10.0 µM) was 88% and the residual activity (SYK (human); compound 1.0 µM) was 71%. For the same compound, the residual activity (SYK (human); compound 10.0 µM) was 63%, the residual activity (FLT1 (human); compound 1.0 µM) was 64% and the residual activity (FLT1 (human); compound 10.0 µM) was 61%. It also gave a residual activity (CAMKK2 (human); compound 1.0 µM) of 89%, a residual activity (CAMKK2 (human); compound 10.0 µM) of 53% and a residual activity (PIM2 (human); compound 1.0 µM) of 87%. For the same compound, the residual activity (PIM2 (human); compound 10.0 µM) was 97%, the residual activity (RPS6KA5 KD1 KD2 (human); compound 1.0 µM) was 79% and the residual activity (RPS6KA5 KD1 KD2 (human); compound 10.0 µM) was 84%. For the same compound, the residual activity (MELK (human); compound 1.0 µM) was 88%, the residual activity (MELK (human); compound 10.0 µM) was 92% and the residual activity (MAPK12 (human); compound 1.0 µM) was 90%. It also gave a residual activity (MAPK12 (human); compound 10.0 µM) of 106%, a residual activity (SRC (human); compound 1.0 µM) of 99% and a residual activity (SRC (human); compound 10.0 µM) of 99%. For the same compound, the residual activity (LCK (mouse); compound 1.0 µM) was 106%, the residual activity (LCK (mouse); compound 10.0 µM) was 99% and the residual activity (MAPK1 (human); compound 1.0 µM) was 83%. It also gave a residual activity (MAPK1 (human); compound 10.0 µM) of 85%, a residual activity (NTRK1 (human); compound 1.0 µM) of 79% and a residual activity (NTRK1 (human); compound 10.0 µM) of 32%. For the same compound, the residual activity (MARK2 (human); compound 1.0 µM) was 62%, the residual activity (MARK2 (human); compound 10.0 µM) was 72% and the IC50 (MYLK (human)) was 12.2 µM. It also gave a residual activity (MYLK (human); compound 1.0 µM) of 76%, a residual activity (MYLK (human); compound 10.0 µM) of 25% and a residual activity (NEK2 (human); compound 1.0 µM) of 92%. It also gave a residual activity (NEK2 (human); compound 10.0 µM) of 110%, a residual activity (MAPK11 (human); compound 1.0 µM) of 73% and a residual activity (MAPK11 (human); compound 10.0 µM) of 45%. It also gave a residual activity (INSRR (human); compound 1.0 µM) of 80% and a residual activity (INSRR (human); compound 10.0 µM) of 91%.
